Data from ChEMBL document CHEMBL1158056, “Antidepressant principles of the roots of Polygala tenuifolia” (J Nat Prod, 2006).

Molecular target: Sodium-dependent noradrenaline transporter (Homo sapiens, UniProt P23975)
Experiment: biochemical
Description: Displacement of [125I]RTI-55 from human NET expressed in MDCK cell membrane

Sodium-dependent noradrenaline transporter, sequence (P23975 whole entry): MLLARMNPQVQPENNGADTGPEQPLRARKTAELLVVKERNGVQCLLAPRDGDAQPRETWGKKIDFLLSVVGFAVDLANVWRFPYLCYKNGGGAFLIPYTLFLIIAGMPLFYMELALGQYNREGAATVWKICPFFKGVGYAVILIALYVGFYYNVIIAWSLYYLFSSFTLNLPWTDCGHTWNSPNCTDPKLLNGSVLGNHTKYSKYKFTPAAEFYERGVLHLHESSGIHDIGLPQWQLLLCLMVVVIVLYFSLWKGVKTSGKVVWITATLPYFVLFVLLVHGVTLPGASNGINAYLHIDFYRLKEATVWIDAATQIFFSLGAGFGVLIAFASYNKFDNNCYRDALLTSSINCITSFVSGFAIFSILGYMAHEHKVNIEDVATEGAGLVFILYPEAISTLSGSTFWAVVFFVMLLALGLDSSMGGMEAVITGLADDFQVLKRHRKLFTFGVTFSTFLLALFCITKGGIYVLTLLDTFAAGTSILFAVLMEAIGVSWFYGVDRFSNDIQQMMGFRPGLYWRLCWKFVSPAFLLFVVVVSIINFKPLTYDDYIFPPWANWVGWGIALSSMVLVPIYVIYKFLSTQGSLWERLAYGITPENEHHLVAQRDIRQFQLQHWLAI

Row | SMILES | IC50
1 | OC[C@@H]1OC[C@@H](O[C@@H]2O[C@@H](CO)[C@@H](O)[C@@H](OCc3ccccc3)[C@@H]2O)[C@H](O)[C@H]1O [POLYGALATENOSIDE B] | 6.04 µM
2 | OC[C@@H]1OC[C@@H](O[C@@H]2O[C@@H](COCc3ccccc3)[C@@H](O)[C@@H](O)[C@@H]2O)[C@H](O)[C@H]1O [POLYGALATENOSIDE A] | 30 µM
